Reference: patent publication US12181473B2 (priority 2017, dated 2024)

System: fumonisin B1 monoclonal antibody secreted from the hybridoma cell line Fm7A11
Format: binding, BALB/c mice

SMILES: CCCC[C@@H](C)[C@@H](OC(=O)C[C@@H](CC(=O)O)C(=O)O)[C@H](C[C@@H](C)C[C@H](O)CCCC[C@@H](O)C[C@H](O)[C@H](C)N)OC(=O)C[C@@H](CC(=O)O)C(=O)O [fumonisin B1]
- sensitivity (IC50, concentration of competitive antigen at 50% suppression ratio): 0.32 ng/mL

SMILES: CCCC[C@@H](C)[C@@H](OC(=O)C[C@@H](CC(=O)O)C(=O)O)[C@H](C[C@@H](C)C[C@H](O)CCCCCC[C@H](O)[C@H](C)N)OC(=O)C[C@@H](CC(=O)O)C(=O)O [fumonisin B3]
- Cross rates of response: 12.8%

SMILES: CCCC[C@@H](C)[C@@H](OC(=O)C[C@@H](CC(=O)O)C(=O)O)[C@H](C[C@@H](C)CCCCCC[C@@H](O)C[C@H](O)[C@H](C)N)OC(=O)C[C@@H](CC(=O)O)C(=O)O [fumonisin B2]
- Cross rates of response: 4.3%
